From ChEMBL document CHEMBL6109153, “Development of Membrane-Targeting Osthole Derivatives Containing Pyridinium Quaternary Ammonium Moieties with Potent Anti-Methicillin-Resistant Staphylococcus aureus Properties” (J Med Chem, 2025) come the findings set out here.

A short description of data set [1]: Toxicity in KM mouse assessed as erythema on dorsal skin at <=30 mg/kg, sc. Type of data set: organism-based. To be noted: in vivo.
Data set [2] deals with Staphylococcus aureus. Put plainly: Antibacterial activity against methicillin-resistant Staphylococcus aureus M11 infected in BALB/c mouse model of Sepsis assessed as reduction in bacterial load in kidney at 10 mg/kg, ip measured after 48 hrs. Type of data set: functional.
Data set [3] relates to Staphylococcus aureus. Put plainly: Antibacterial activity against methicillin-resistant Staphylococcus aureus M11 infected in BALB/c mouse model of Sepsis assessed as reduction in serum TNF-alpha level administered intraperitoneally measured after 48 hrs. To be noted: dose 10-20 mg/kg, route ip. Type of data set: functional, organism-based.
Data set [4] is described as follows: Binding affinity to phosphatidylglycerol assessed as change in entropy by ITC analysis. On the technique in general: In ITC the heat of successive injections is recorded.
Data set [5] is described as follows: Toxicity in BALB/c mouse model of Sepsis infected with methicillin-resistant Staphylococcus aureus M11 assessed as survival rate at 30 mg/kg, ip measured after 7 days. The data set is classed as organism-based. To be noted: in vivo, 168 h, time 7 day.
Data set [6] has as its system Staphylococcus aureus. Put plainly: Antibacterial activity against methicillin-resistant Staphylococcus aureus M11 infected in BALB/c mouse model of Sepsis assessed as reduction in bacterial load in spleen at 20 mg/kg, ip measured after 48 hrs. The data set is classed as functional.
A short description of data set [7]: Toxicity in BALB/c mouse assessed as change in blood routine parameters at 30 mg/kg, ip measured for 7 days. The data set is classed as organism-based. To be noted: in vivo, 168 h, time 7 day.
Data set [8] relates to Staphylococcus aureus. Kind of data set: Antibacterial activity against methicillin-resistant Staphylococcus aureus M11 infected in BALB/c mouse model of Sepsis assessed as vacuolar degeneration in renal epithelial cells at 10 mg/kg, ip measured after 48 hrs. The data set is classed as functional, organism-based.
The subject of data set [9] is Staphylococcus aureus. Kind of data set: Antibacterial activity against methicillin-resistant Staphylococcus aureus M11 infected in BALB/c mouse model of Sepsis assessed as vacuolar degeneration in liver cells at 10 to 20 mg/kg, ip measured after 48 hrs. Type of data set: functional, organism-based. Particulars: dose 10-20 mg/kg.
Data set [10] is described as follows: Binding affinity to phosphatidylglycerol assessed as association constant by ITC analysis.
Data set [11] is described as follows: Toxicity in BALB/c mouse model of Sepsis infected with methicillin-resistant Staphylococcus aureus M11 assessed as survival rate at 10 mg/kg, ip measured after 7 days. The data set is classed as organism-based. To be noted: in vivo, 168 h, time 7 day.
Data set [12] in a line: Toxicity in KM mouse assessed as abnormality in lung at 30 mg/kg, sc by H and E staining based analysis. Type of data set: organism-based. Particulars: in vivo.
A short description of data set [13]: Toxicity in KM mouse assessed as abnormality in kidney at 30 mg/kg, sc by H and E staining based analysis. The data set is classed as organism-based. Particulars: in vivo.
Data set [14] deals with Staphylococcus aureus. Put plainly: Antibacterial activity against methicillin-resistant Staphylococcus aureus M11 infected in BALB/c mouse model of Sepsis assessed as reduction in bacterial load in liver at 20 mg/kg, ip measured after 48 hrs. The data set is classed as functional.
Data set [15] in a line: Toxicity in BALB/c mouse model of Sepsis infected with methicillin-resistant Staphylococcus aureus M11 assessed as survival rate at 20 mg/kg, ip measured after 7 days. The data set is classed as organism-based. Particulars: in vivo, 168 h, time 7 day.
In data set [16] the test system is Staphylococcus aureus. Put plainly: Antibacterial activity against methicillin-resistant Staphylococcus aureus M11 infected in BALB/c mouse model of Sepsis assessed as vacuolar degeneration in renal epithelial cells at 20 mg/kg, ip measured after 48 hrs. The data set is classed as functional, organism-based.
A short description of data set [17]: Toxicity in KM mouse assessed as erythema on dorsal skin at 40 mg/kg, sc. Type of data set: organism-based. To be noted: in vivo.
Data set [18] relates to Staphylococcus aureus. Kind of data set: Antibacterial activity against methicillin-resistant Staphylococcus aureus M11 infected in BALB/c mouse model of Sepsis assessed as reduction in bacterial load in spleen at 10 mg/kg, ip measured after 48 hrs. Type of data set: functional.
Data set [19] deals with Staphylococcus aureus. Kind of data set: Antibacterial activity against methicillin-resistant Staphylococcus aureus M11 infected in BALB/c mouse model of Sepsis assessed as reduction in bacterial load in liver at 10 mg/kg, ip measured after 48 hrs. The data set is classed as functional.
Data set [20] has as its system Staphylococcus aureus. Kind of data set: Antibacterial activity against methicillin-resistant Staphylococcus aureus M11 infected in BALB/c mouse model of Sepsis assessed as reduction in bacterial load in kidney at 20 mg/kg, ip measured after 48 hrs. Type of data set: functional.
Data set [21] can be described thus: Toxicity in BALB/c mouse assessed as lesions in tissues of organs at 30 mg/kg, ip measured for 7 days by H and E staining based analysis. Type of data set: organism-based. Particulars: in vivo, 168 h, time 7 day.
The nature of data set [22]: Toxicity in KM mouse assessed as abnormality in liver at 30 mg/kg, sc by H and E staining based analysis. Type of data set: organism-based. Particulars: in vivo.
A short description of data set [23]: Toxicity in BALB/c mouse assessed as change in blood routine parameters at 10 mg/kg, ip measured for 7 days. Type of data set: organism-based. Particulars: in vivo, 168 h, time 7 day.
Data set [24] in a line: Toxicity in BALB/c mouse assessed as obvious damage in tissues of organs at 10 mg/kg, ip measured for 7 days by H and E staining based analysis. The data set is classed as organism-based. To be noted: in vivo, 168 h, time 7 day.
Data set [25] is described as follows: Toxicity in KM mouse assessed as abnormality in spleen at 20 mg/kg, sc by H and E staining based analysis. Type of data set: organism-based. Particulars: in vivo.
Data set [26] in a line: Toxicity in KM mouse assessed as erythema on dorsal skin at 30 mg/kg, sc. Type of data set: organism-based. To be noted: in vivo.
Data set [27] is described as follows: Toxicity in KM mouse assessed as abnormality in kidney at 20 mg/kg, sc by H and E staining based analysis. Type of data set: organism-based. To be noted: in vivo.
A short description of data set [28]: Toxicity in BALB/c mouse assessed as change in serum biochemical parameters at 10 mg/kg, ip measured for 7 days. Type of data set: organism-based. Particulars: in vivo, 168 h, time 7 day.
Data set [29] in a line: Toxicity in KM mouse assessed as erythema on dorsal skin at <=20 mg/kg, sc. Type of data set: organism-based. To be noted: in vivo.
Data set [30] is described as follows: Toxicity in BALB/c mouse assessed as lesions in tissues of organs at 10 mg/kg, ip measured for 7 days by H and E staining based analysis. Type of data set: organism-based. To be noted: in vivo, 168 h, time 7 day.

Molecules are shown by their SMILES. Calls of active or inactive are those of the source. The calls are words filed in the database; no cut-off is given here.

On to `CC(C)=CCc1c(OCCCCSc2cc[n+](CC(=O)N(CC(C)C)CC(C)C)cc2)ccc2ccc(=O)oc12.[Br-]`, for which the Activity result in data set [1] is “Non-toxic”; in the data set on Staphylococcus aureus [2] it was 1.81 log10CFU/ml; in the data set on Staphylococcus aureus [3], “Dose-dependent-effect”; with Staphylococcus aureus [6], 4.33 log10CFU/ml; in [7], “Non-toxic”; in data set [12], “Non-toxic”. The Activity result in data set [13] is “Non-toxic”; in the data set with Staphylococcus aureus [14] it was 3.81 log10CFU/ml; in the data set on Staphylococcus aureus [16] it was “Active; Improvement Was Comparable To That In Vancomycin Group”; in [17], “Toxic”; in the data set on Staphylococcus aureus [18], 1.62 log10CFU/ml; in the data set on Staphylococcus aureus [19], 1.84 log10CFU/ml. For the same molecule, the Activity with Staphylococcus aureus [20] was 4.24 log10CFU/ml; in data set [21] it was “Non-toxic”; in data set [22], “Non-toxic”. Moreover, in [4], the deltaS worked out at 11.7 cal/mol/deg. The figures for the Survival in [5], in data set [11] and in data set [15] were 100%, 44.4% and 66.7%, respectively. Also, the result with Staphylococcus aureus [8] was inactive. Moreover, in the data set with Staphylococcus aureus [9], the result was Active. In addition, the Ka in data set [10] is 3.53 10^4/M.
With `CCCCCNC(=O)C[n+]1ccc(SCCCCCOc2ccc3ccc(=O)oc3c2CC=C(C)C)cc1.[Br-]`, the Activity entry is on record as “Non-toxic” in data set [23]; “Non-toxic” in data set [24]; “Non-toxic” in [25]; “Toxic” in data set [26]; “Non-toxic” in data set [27]; “Non-toxic” in [28]. Besides, the Activity entry in data set [29] and in data set [30] was “Non-toxic” each time.
